Reference: patent US7115724B2, “Murine genomic polynucleotide sequence encoding a G-protein coupled receptor and methods of use therefor” (priority 2001, dated 2006)
Read-outs that look alike come from different tables or passages of the source.

How the values were obtained:
mouse P2T receptor = target: T1, mouse P2T receptor (Mus musculus, UniProt Q9CPV9); assay: Yeast cell-based assay of mouse P2T receptor agonist activation (β-galactosidase reporter); settings: for rank order of potency of agonist stimulation of the mouse P2T receptor: yeast assay (FIG. 2)
T1 construct: Oligonucleotides corresponding to the 5′ and 3′ ends of the predicted protein coding region were used to amplify a fragment; expressed in transfected cells; host or cells: Saccharomyces cerevisiae MPY578 variant expressing a Gpa1-Gαt chimera, with pMP344 (p426GPD backbone) and the FUS1-LacZ reporter pMP283
T1 sequence (Q9CPV9 whole entry, the tested form may be a part): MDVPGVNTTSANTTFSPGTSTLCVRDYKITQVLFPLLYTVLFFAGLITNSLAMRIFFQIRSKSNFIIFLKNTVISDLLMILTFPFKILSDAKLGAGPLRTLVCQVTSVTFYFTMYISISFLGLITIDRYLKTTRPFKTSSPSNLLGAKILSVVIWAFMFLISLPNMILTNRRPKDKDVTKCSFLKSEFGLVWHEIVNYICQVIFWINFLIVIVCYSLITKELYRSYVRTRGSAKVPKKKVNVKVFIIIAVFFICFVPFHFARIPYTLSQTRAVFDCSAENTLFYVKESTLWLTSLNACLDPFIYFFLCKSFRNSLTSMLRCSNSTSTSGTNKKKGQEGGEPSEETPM
Description: In order to facilitate coupling of the P2T receptor to G protein, MPY578 variant cells express chimeric G alpha proteins coupled to the mating signal transduction pathway. The chimeric constructs are expressed from the GPA1 locus and are composed of Gpa1 sequences in which the 5 C-terminal amino acids have been replaced with those of all the mammalian Gα proteins. A multicopy FUS1-LacZ reporter gene plasmid, pMP283, was introduced into P2T receptor-containing cells and selected on media lacking trp and ura. The resulting yeast strains were used for further analysis.
MPY578 cells that express Gpa1-Gαt chimeric G alpha protein and containing pMP344 and pMP283 were diluted in assay medium (SCD-ura-trp, pH 6.8, 25 mM PIPES, 1 mM 3-aminotriazole) dispensed (5×10^6/ml, 200 μl/well) to the wells of 96-well microtiter dishes containing purinergic ligands. The plates were incubated with shaking (600 rpm) at 30° C. for 3 hours. Samples (25 μl) were transferred to Wallac B & W isoplates for β-galactosidase assay. An equal volume of GAL-SCREEN lysis and chemiluminescent β-galactosidase assay mixture was added. The plates were incubated for 30 min at 30° C. and light emission measured using a Wallac Victor II. Assays were conducted in quadruplicate and results were plotted using GraphPad Prizm.

human P2Y12 receptor [1] = target: T2, human P2Y12 receptor (Homo sapiens, UniProt Q9H244); settings: Zhang et al., 2001, cited from earlier work; for rank order of potency, human P2T (P2Y12) receptor in adenylyl cyclase inhibition assays: reported values
T2 sequence (Q9H244 whole entry): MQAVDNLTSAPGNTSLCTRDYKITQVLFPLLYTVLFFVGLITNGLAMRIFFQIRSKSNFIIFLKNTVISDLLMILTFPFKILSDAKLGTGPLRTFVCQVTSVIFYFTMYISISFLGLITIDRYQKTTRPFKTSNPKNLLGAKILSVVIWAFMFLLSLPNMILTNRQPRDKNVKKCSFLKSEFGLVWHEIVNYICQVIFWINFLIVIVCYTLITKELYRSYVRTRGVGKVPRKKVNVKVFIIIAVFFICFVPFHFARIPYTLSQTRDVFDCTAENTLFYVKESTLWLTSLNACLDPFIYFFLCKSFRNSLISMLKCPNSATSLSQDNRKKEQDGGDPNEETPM

human P2Y12 receptor [2] = target: T2, human P2Y12 receptor; design: host or cells: NIH3T3 cells with a chimeric Gq/i3 construct (FLIPR); settings: cited from earlier work; for rank order of potency, human P2T (P2Y12) receptor measured in FLIPR: reported values, Zhang et al., 2001
mouse P2Y12 = target: T3, mouse P2Y12 (Mus musculus, UniProt Q9CPV9); assay: Agonist-induced release of intracellular calcium (FLIPR) in NIH3T3 cells expressing mouse P2Y12 and chimeric Gαq/i3; format: cell-based; settings: for rank order of potency of agonist stimulation of the mouse P2Y12 receptor in FLIPR: NIH3T3 Gαq/i3 cells (FIG. 4)
T3 construct: expressed in transfected cells; host or cells: NIH3T3 cells stably transfected with pCDNA-Gαq/i3 and pCDNA3.1-mP2Y12
T3 sequence (Q9CPV9 whole entry): as the sequence (Q9CPV9 whole entry, the tested form may be a part) above
Method: Mammalian cell expression and measurement of intracellular calcium. NIH3T3 cells were stably transfected with pCDNA-Gαq/i3 by electroporation and cultured in the presence of 800 μg/ml neomycin. The NIH3T3 Gαq/i3 line was subsequently stably transfected with pCDNA3.1-mP2Y12 by electroporation and cultured in the presence of 800 μg/ml neomycin and 400 μg/ml hygromycin. Cells were plated without selection and grown overnight at 37° C. The cells were washed with Hank's balanced salt solution without phenol red plus 20 mM HEPES, 2.5 mM probenecid, pH 7.4 and loaded with wash solution plus 5 μM Fluo-4, 0.04% pluronic acid and 1% fetal bovine serum for 1 hour at 37° C. After removing the dye solution and washed with wash buffer, agonists were added and analyzed using the FLIPR (PE Biosystems) to measure accumulation of intracellular calcium in response to compound treatments.
In published reports, Xenopus oocytes injected with the human P2Y12 receptor cRNA and coupled to stimulation of coinjected Kir3.1/Kir3.2 inwardly rectifying K+ currents, the EC50 was 300 nM (Hollopeter, 2001). […] The rank orders of potency of agonist stimulation of the mouse P2Y12 receptor in FLIPR (2MeSADP>ADP=ADPβS>ATPγS) agree well with reported values for the human P2Y12 receptor measured in FLIPR (2MeSADP=2MeSATP>ADP=ADPβS>2CIATP>ATPγS) and in adenylyl cyclase inhibition assays (2MeSATP>2MeSADP>ADP>ATPγS>ADPβS>2CIATP) (Zhang, 2001).

human P2Y12 receptor [3] = target: T2, human P2Y12 receptor; settings: Xenopus oocytes injected with P2T (human P2Y12) receptor cRNA; Hollopeter et al., 2001; read-out: EC50, stimulation of Kir3.1/Kir3.2 inwardly rectifying K+ currents; cited from earlier work

Q: For `Nc1nc(Cl)nc2c1ncn2[C@@H]1O[C@H](COP(=O)(O)OP(=O)(O)OP(=O)(O)O)[C@@H](O)[C@H]1O` [2CIATP], which “rank order of potency of agonist stimulation of the mouse P2T receptor” value (“rank order … of the mouse P2T receptor” for short) (mouse P2T receptor) is on record?
A: Its value is 2MeSADP>2MeSATP>ADP=ADPβS>ATPγS>2CIATP.

Q: What about the “rank order of potency, human P2T (P2Y12) receptor in adenylyl cyclase inhibition assays” value (human P2Y12 receptor [1]) of the same molecule?
A: The value was 2MeSATP>2MeSADP>ADP>ATPγS>ADPβS>2CIATP.

Q: What about the “rank order of potency, human P2T (P2Y12) receptor measured in FLIPR” value (from here on “rank order of potency, human P2T … in FLIPR”) (human P2Y12 receptor [2]) of the same molecule?
A: The value was 2MeSADP=2MeSATP>ADP =ADPβS>2CIATP>ATPγS.

Q: Which “rank order … of the mouse P2T receptor” value (mouse P2T receptor) does the source give for `Nc1ncnc2c1ncn2[C@@H]1O[C@H](COP(=O)(O)OP(O)(O)=S)[C@@H](O)[C@H]1O` [ADPβS] here?
A: Its value is 2MeSADP>2MeSATP>ADP=ADPβS>ATPγS>2CIATP.

Q: What about the “rank order of potency of agonist stimulation of the mouse P2Y12 receptor in FLIPR” value (mouse P2Y12) of the same molecule?
A: The value was 2MeSADP>ADP=ADPβS>ATPγS.

Q: What about the “rank order of potency, human P2T (P2Y12) receptor in adenylyl cyclase inhibition assays” value (human P2Y12 receptor [1]) of the same molecule?
A: The value was 2MeSATP>2MeSADP>ADP>ATPγS>ADPβS>2CIATP.

Q: What about the “rank order of potency, human P2T … in FLIPR” value (human P2Y12 receptor [2]) of the same molecule?
A: The value was 2MeSADP=2MeSATP>ADP =ADPβS>2CIATP>ATPγS.

Q: What does the source list for `CSc1nc(N)c2ncn([C@@H]3O[C@H](COP(=O)(O)OP(=O)(O)O)[C@@H](O)[C@H]3O)c2n1` [2MeSADP]?
A: rank order of potency of agonist stimulation of the mouse P2T receptor (mouse P2T receptor): 2MeSADP>2MeSATP>ADP=ADPβS>ATPγS>2CIATP; rank order of potency of agonist stimulation of the mouse P2Y12 receptor in FLIPR (mouse P2Y12): 2MeSADP>ADP=ADPβS>ATPγS; rank order of potency, human P2T (P2Y12) receptor in adenylyl cyclase inhibition assays (human P2Y12 receptor [1]): 2MeSATP>2MeSADP>ADP>ATPγS>ADPβS>2CIATP; rank order of potency, human P2T (P2Y12) receptor measured in FLIPR (human P2Y12 receptor [2]): 2MeSADP=2MeSATP>ADP =ADPβS>2CIATP>ATPγS

Q: Which EC50 (mouse P2T receptor; MPY578 yeast cells, β-galactosidase reporter, read-out: EC50 for ADP stimulation of the mouse P2T assayed in yeast) does the source give for `Nc1ncnc2c1ncn2[C@@H]1O[C@H](COP(=O)(O)OP(=O)(O)O)[C@@H](O)[C@H]1O` [ADP] here?
A: Its EC50 is 256 nM.

Q: What about the “rank order … of the mouse P2T receptor” value (mouse P2T receptor) of the same molecule?
A: Its value is 2MeSADP>2MeSATP>ADP=ADPβS>ATPγS>2CIATP.

Q: What about the EC50 (mouse P2Y12; FLIPR, NIH3T3 Gαq/i3 cells, read-out: EC50 for ADP stimulation of the mouse P2Y12 dependent release of intracellular calcium) of the same molecule?
A: Its EC50 is 27 nM.

Q: What about the “rank order of potency of agonist stimulation of the mouse P2Y12 receptor in FLIPR” value (mouse P2Y12) of the same molecule?
A: Its value is 2MeSADP>ADP=ADPβS>ATPγS.

Q: What about the EC50 (human P2Y12 receptor [3]) of the same molecule?
A: Its EC50 is 300 nM.

Q: What about the EC50 (human P2Y12 receptor [1]; read-out: EC50, ADP dependent inhibition of cAMP accumulation) of the same molecule?
A: Its EC50 is 61 nM.

Q: What about the “rank order of potency, human P2T (P2Y12) receptor in adenylyl cyclase inhibition assays” value (human P2Y12 receptor [1]) of the same molecule?
A: The value was 2MeSATP>2MeSADP>ADP>ATPγS>ADPβS>2CIATP.

Q: What about the EC50 (human P2Y12 receptor [2]; NIH3T3 cells, receptor with chimeric Gq construct, literature value, read-out: EC50 measured by FLIPR) of the same molecule?
A: Its EC50 is 74 nM.

Q: And the “rank order of potency, human P2T … in FLIPR” value (human P2Y12 receptor [2])?
A: The value was 2MeSADP=2MeSATP>ADP =ADPβS>2CIATP>ATPγS.

Q: For `Nc1ncnc2c1ncn2[C@@H]1O[C@H](COP(=O)(O)OP(=O)(O)OP(O)(O)=S)[C@@H](O)[C@H]1O` [ATPγS], which “rank order … of the mouse P2T receptor” value (mouse P2T receptor) is on record?
A: Its value is 2MeSADP>2MeSATP>ADP=ADPβS>ATPγS>2CIATP.

Q: What about the “rank order of potency of agonist stimulation of the mouse P2Y12 receptor in FLIPR” value (mouse P2Y12) of the same molecule?
A: The value was 2MeSADP>ADP=ADPβS>ATPγS.

Q: What about the “rank order of potency, human P2T (P2Y12) receptor in adenylyl cyclase inhibition assays” value (human P2Y12 receptor [1]) of the same molecule?
A: Its value is 2MeSATP>2MeSADP>ADP>ATPγS>ADPβS>2CIATP.

Q: What about the “rank order of potency, human P2T … in FLIPR” value (human P2Y12 receptor [2]) of the same molecule?
A: Its value is 2MeSADP=2MeSATP>ADP =ADPβS>2CIATP>ATPγS.

Q: Which results are given for `CSc1nc(N)c2ncn([C@@H]3O[C@H](COP(=O)(O)OP(=O)(O)OP(=O)(O)O)[C@@H](O)[C@H]3O)c2n1` [2MeSATP]?
A: rank order of potency of agonist stimulation of the mouse P2T receptor (mouse P2T receptor): 2MeSADP>2MeSATP>ADP=ADPβS>ATPγS>2CIATP; rank order of potency, human P2T (P2Y12) receptor in adenylyl cyclase inhibition assays (human P2Y12 receptor [1]): 2MeSATP>2MeSADP>ADP>ATPγS>ADPβS>2CIATP; rank order of potency, human P2T (P2Y12) receptor measured in FLIPR (human P2Y12 receptor [2]): 2MeSADP=2MeSATP>ADP =ADPβS>2CIATP>ATPγS
